Holding throughout (type): in vivo
Test [1] deals with 3rd-instar larvae of Pyrausta nubilalis Hubern. The experiment in a line: Synergism assay (Bliss) of I-72 + abamectin, spinosad, spinetoram, emamectin benzoate, Example 6, Table 6. To be noted: Ostrinia nubilalis, 72 h, read-out: Mortality rate (%). The protocol: Test subject: 3rd-instar larvae of Pyrausta nubilalis Hubern, a sensitive strain reared indoors.
Test conditions: temperature: 24-26° C., humidity: RH 60%, and illumination: L:D=14:10
Preparation method: the test pesticides were accurately weighed respectively with an electronic analytical balance. After the two technical materials were respectively added into an appropriate amount of solvent and completely dissolved, the stock solution of the required concentration was prepared with water containing 0.1% Tween 80. The stock solutions of the two active ingredients were mixed in a certain ratio to prepare a mixed solution, which was then diluted respectively into a series of pesticide solutions with a certain concentration gradient according to the experimental design dosage.
Experimental method: the artificial diet-pesticide film method was adopted. A standard clean 24-well culture plate was selected. 1 ml of artificial diet was added to each well. After the diet cooled and solidified, a quantitative amount of a pesticide solution was added to the culture plate using a continuous sampler, and then it was air-dried naturally in the shade. The standard test insects were introduced, with 1 insect in each well, a total of 48 insects. The treated test insects were placed in an observation room under certain conditions. The reaction of the test insects was regularly observed, and the number of dead and live insects was investigated 72 h later.
The evaluation method adopted was the Bliss method. This method is applicable to the qualitative screening of insecticidal compositions. According to the concept of independent joint action he proposed, Bliss believes that the theoretical mortality rate P when insecticides are used in combination can be calculated by the following formula: […]
Pm is the mortality rate (%) of the target when the first active ingredient is at a concentration of m; and Pn is the mortality rate (%) of the target when the second active ingredient is at a concentration of n.
If the actual mortality rate of the target after the two active ingredients are mixed at a certain concentration is greater than theoretical mortality rate P, it is determined that the two active ingredients have a synergistic effect when used in combination at the set concentration, and otherwise, they have an antagonistic effect.

Test [2] relates to 2nd-instar larvae of Chilo suppressalis (Walker). The experiment in a line: Joint toxicity of I-72 + azadirachtin, Example 36, Table 36. To be noted: A = compound I-72, B = azadirachtin, rice stalk spraying, 72 hours, chlorantraniliprole-resistant strain, read-out: LC50. From the text: Test target: 2nd-instar larvae of Chilo suppressalis (Walker). The insect source was collected from Nanchang, Jiangxi Province, and it is the 11th generation continuously cultured indoors, with a relatively high resistance level to amide pesticides such as chlorantraniliprole.
Experimental method: the spraying method was adopted. Rice stalks with the same length and thickness were selected, cut into the same length, and evenly sprayed with the pesticide solution in the order from low dosage to high dosage according to the experimental design, with 1.5 mL of the pesticide solution for each treatment. The stalks were placed in a 6-cm-diameter Petri dish with filter paper. After natural air-drying in the shade, uniform and healthy test insects were introduced, with 10 insects for each treatment and 4 replicates for each treatment. In addition, a blank control was set up. The number of dead and live insects was investigated 72 hours later. The corrected mortality rate was calculated using the Abbott's formula, and the DPS data processing software was used for statistical analysis to calculate the toxicities (LC50 values) of the single test pesticides and the mixtures under the test ratios.
The test conditions, the preparation of the pesticide solution and the evaluation method were the same as those in Example 1.

The test system of test [3] is 2nd-instar larvae of Mythimna separata. Description: Joint toxicity of I-72 + beta-cyfluthrin, Example 41, Table 41. The settings on record: Mythimna separata, foliar; A = compound I-72, B = beta-cyfluthrin; corn leaf dipping; 72 hours; read-out: LC50. As for the experimental part: Test target: 2nd-instar larvae of Mythimna separata.
(§1) Preparation of the pesticide solution: according to different test requirements, the test samples were accurately weighed respectively with an electronic analytical balance. The technical pesticides were dissolved in acetone, and then diluted with 0.1% Tween 80 water into a series of pesticide solutions with a certain concentration gradient according to the experimental design dosage.
Experimental method: first, corn leaves were selected and dipped in the prepared pesticide solution for 10 s in the order from low dosage to high dosage according to the experimental design. After natural air-drying in the shade, they were placed in a 9-cm-diameter Petri dish with filter paper, and uniform and healthy test insects were introduced, with 10 insects for each treatment and 3 replicates for each treatment. In addition, a blank control was set up.
The treated test materials were placed in an observation room, and the temperature, humidity and illumination of the observation room could be adjusted as needed. The number of dead and live insects was investigated 72 hours later. […] Then, the co-toxicity coefficient of each ratio was calculated using the Sun Y-P method to evaluate the mixing effect (the same as in Example 1).

Test [4] has as its system Myzus persicae (Sulzer) nymphs. Description: whole plant or invertebrate. To be noted: A = compound I-72, B = clothianidin, cabbage leaf spraying, 48 hours, read-out: LC50. As for the experimental part:
Test target: Myzus persicae (Sulzer) nymphs, a sensitive strain reared indoors.
as §1
Experimental method: first, cabbage leaves with uniform and consistent Myzus persicae (Sulzer) were selected, with about 30-40 insects on each leaf. Then, they were evenly sprayed with the pesticide solution in the order from low dosage to high dosage according to the experimental design, with 1.5 mL of the solution for each leaf and 3 replicates for each treatment. In addition, a blank control was set up.
The treated test materials were placed in an observation room, and the temperature, humidity and illumination of the observation room could be adjusted as needed. The number of dead and live insects was investigated 48 hours later.

The test system of test [5] is Aphis gossypii Glover nymphs. The experiment in a line: Joint toxicity of I-72 + flonicamid, Example 74, Table 74. To be noted: Aphis gossypii; A = compound I-72, B = flonicamid; cotton leaf spraying; 48 hours; read-out: LC50. The protocol: Test target: Aphis gossypii Glover nymphs, a sensitive strain reared indoors.
as §1
Experimental method: first, cotton leaves with uniform and consistent Aphis gossypii were selected, with about 30-40 insects on each leaf. Then, they were evenly sprayed with the pesticide solution in the order from low dosage to high dosage according to the experimental design, with 1.5 mL for each leaf and 3 replicates for each treatment. In addition, a blank control was set up.
The treated test materials were placed in an observation room, and the temperature, humidity and illumination of the observation room could be adjusted as needed. The number of dead and live insects was investigated 48 hours later. […] Then, the co-toxicity coefficient of each ratio was calculated using the Sun Y-P method to evaluate the mixing effect (the same as in Example 1).

≈ marks a conversion by molar mass, not a printed value.

The mortality is the share of the test organisms that died. The term LC50 denotes the concentration that kills 50% of the test population. For `CN(C(=O)c1ccc2c(c1)OC(F)(F)O2)c1cccc(C(=O)Nc2c(Br)cc(C(F)(C(F)(F)F)C(F)(F)F)cc2OC(F)F)c1F` [Compound I-72], the mortality at 0.05 µg/mL in test [1] (single agent 0.05 mg/L) was determined as 10.4%. The mortality at 0.1 µg/mL in test [1] (single agent 0.1 mg/L) stood at 25%. In addition, in test [1] (single agent 1 mg/L), the mortality at 1 µg/mL came to 62.5%. Further, the mortality at 2 µg/mL in test [1] (single agent 2 mg/L) was 72.9%. Further, the mortality at 5 µg/mL in test [1] (single agent 5 mg/L) was determined as 81.2%. In addition, the LC50 came to 0.822 µg/mL in test [2], 0.029 µg/mL in test [3], 8.05 µg/mL (≈ 10.9 µM) in test [4] and 2.81 µg/mL in test [5].

These data come from patent publication US20260198495A1, “BINARY INSECTICIDE COMPOSITION AND USE THEREOF” (SHENYANG SINOCHEM AGROCHEMICALS R & D CO., LTD., priority 2022, published 2026).
